Laboratory results taken from patent US20230065562A1, “DUAL CONTROLS FOR THERAPEUTIC CELL ACTIVATION OR ELIMINATION” (Bellicum Pharmaceuticals, Inc., priority 2015, published 2023).

How the values were obtained:
[1] = test system: iCasp9-transduced MSCs; assay: Apoptosis studies in vitro in iCasp9-ΔCD19 transduced MSCs; assay type: cell-based, human
Method: Undifferentiated MSCs. The chemical inducer of dimerization (CID) (AP20187; ARIAD Pharmaceuticals, Cambridge, Mass.) was added at 50 nM to iCasp9-transduced MSCs cultures in complete medium. Apoptosis was evaluated 24 hours later by FACS analysis, after cell harvest and staining with annexin V-PE and 7-AAD in annexin V binding buffer (BD Biosciences, San Diego, Calif.). Control iCasp9-transduced MSCs were maintained in culture without exposure to CID.
Differentiated MSCs. Transduced MSCs were differentiated as presented above. At the end of the differentiation period, CID was added to the differentiation media at 50 nM. Cells were stained appropriately for the tissue being studied, as presented above, and a contrast stain (methylene azure or methylene blue) was used to evaluate the nuclear and cytoplasmic morphology. In parallel, tissues were processed for terminal deoxynucleotidyl-transferase dUTP nick end labeling (TUNEL) assay as per manufacturer instructions (In Situ Cell Death Detection Kit, Roche Diagnostics, Mannheim, Germany). For each time point, four random fields were photographed at a final magnification of 40× and the images were analyzed with ImageJ software version 1.430 (NIH, Bethesda, Md.). Cell density was calculated as the number of nuclei (DAPI positivity) per unit of surface area (in mm^2). The percentage of apoptotic cells was determined as the ratio of the number of nuclei with positive TUNEL signal (FITC positivity) to the total number of nuclei. Controls were maintained in culture without CID.

[2] = test system: HLA-B7+Bob-1+ U266 multiple myeloma; assay: iMC-Bob-1 TCR cytotoxicity and IL-2 secretion against U266; assay type: cell-based
Description: FIG. 120: (A) iMC-Bob-1 TCR-mediated cytotoxicity against HLA-B7^+Bob-1^+ U266 multiple myeloma is rimiducid-independent. […] Go156 TCR is a negative control TCR.

[3] = test system: iRmC9 T cells (pBP1327, GFP-Fluc); assay: Drug titration of rimiducid and rapamycin in mice bearing iRmC9 T cells; assay type: in vivo, mouse; conditions: NSG mice; rimiducid 0.00005-5 mg/kg or rapamycin 0.0001-10 mg/kg i.p.; FIGS. 110B & C
Method: In this experiment, iRmC9 T cells were produced by co-transduction with pBP1327 and GFP-Fluc retroviruses from donor 584. […] Ten million iRmC9 T cells were injected IV per mouse (Table 10) (time=−14 hr). […] Vehicle groups received either PBS, 25% solutol in PBS or 5% DMA in PT. IVIS imaging was performed at −10, 0, 6, and 24 hours. Mice were sacrificed and spleens were collected for FACS analysis with hCD3, hCD19 and mCD45 antibodies. […] This observation is similar to that observed in the previous experiment (FIG. 109B) and could be due to the components of the PT.
FIG. 110. […] PBMCs from donor 584 were activated and co-transduced with retroviruses encoding the pBP1327 vector and the GFP-Fluc plasmid. (FIG. 110A) Ten days post-transduction, the cells were analyzed for CD19 and GFP transduction efficiency prior to injection into mice. (FIGS. 110B & C) NSG mice were injected i.v. with 1×10^7 T cells co-transduced with GFP-Fluc per mouse and suicide drugs were injected i.p. the next day. Bioluminescence of cells was assessed at −10, 0, 6, and 24 hours post drug administration. (FIG. 110D) At 24 h post-drug treatment, mice were euthanized and spleens were collected for flow cytometry analysis with antibodies to hCD3, […], and mCD45.

[4] = test system: luciferase-expressing U266 myeloma cells; assay: NSG mice engrafted with U266 myeloma cells, iMC-PRAME TCR T cells with rimiducid; assay type: in vivo, mouse
Method: FIG. 121: (A) NSG mice were engrafted with 1×10^6 luciferase-expressing U266 myeloma cells and treated with […] non-transduced, PRAME TCR- or iMC-PRAME TCR-transduced T cells on day 13. […] (B) Tumor growth was measured by bioluminescence imaging.

| Compound | apoptosis index of iCasp9-negative cells ([1]; CID 50 nM) [%] | apoptotic death of iCasp9-positive cells within 24 hrs ([1]; CID 50 nM) [%] | annexin positive, negative population (iCasp neg/CID) ([1]; CID 50 nM, 24 hours, FACS) [%] | annexin positive, non-transduced control MSC (Control/CID) ([1]; CID 50 nM, 24 hours, FACS) [%] | cell density after 24 hours ([1]; adipocytic differentiated iCasp9-positive cells, 50 nM CID, from 584) [cells/mm^2] | apoptotic cells among magnetically immunoselected iCasp9-CD19-positive cells ([1]; after exposure to CID) | iMC-Bob-1 TCR-mediated cytotoxicity against U266 ([2]; FIG. 120A) | IL-2 secretion, Bob-1 TCR with rimiducid-driven iMC costimulation, U266 ([2]; FIG. 120B) | IVIS imaging of iRmC9 T cells in dose titration [3] | number of Vβ1+CD8+ T cells in spleen ([4]; 5 mg/kg rimiducid i.p. weekly day 14 to 38, spleens day 94, FIG. 121C) | anti-tumor efficacy of TCR-modified T cells with rimiducid-driven iMC activation ([4]; summary, in vitro and in vivo) |
| --- | --- | --- | --- | --- | --- | --- | --- | --- | --- | --- | --- |
| CC[C@H](C(=O)N1CCCC[C@H]1C(=O)O[C@H](CCc1ccc(OC)c(OC)c1)c1cccc(OCC(=O)NCC(CNC(=O)COc2cccc([C@@H](CCc3ccc(OC)c(OC)c3)OC(=O)[C@@H]3CCCCN3C(=O)[C@@H](CC)c3cc(OC)c(OC)c(OC)c3)c2)CN(C)C)c1)c1cc(OC)c(OC)c(OC)c1 [AP20187] | 20±7 | 93±1 | 19 | 15 | < 14 | More than 95% |  |  |  |  |  |
| CC[C@H](C(=O)N1CCCC[C@H]1C(=O)O[C@H](CCc1ccc(OC)c(OC)c1)c1cccc(OCC(=O)NCCNC(=O)COc2cccc([C@@H](CCc3ccc(OC)c(OC)c3)OC(=O)[C@@H]3CCCCN3C(=O)[C@@H](CC)c3cc(OC)c(OC)c(OC)c3)c2)c1)c1cc(OC)c(OC)c(OC)c1 [rimiducid] |  |  |  |  |  |  | rimiducid-independent | maximal IL-2 secretion | dose-dependent removal | significantly increased | improved anti-tumor efficacy |
